Test results taken from article PMC8433439, “Bivalent ligands promote endosomal trafficking of the dopamine D3 receptor-neurotensin receptor 1 heterodimer” (Communications Biology, 2021).
Entries after “also recorded” stand apart in the source; their conditions may differ.

How the values were obtained:
D3R [1] = target: T1, D3R (Homo sapiens, UniProt P35462); assay: Radioligand competition/saturation binding with [3H]spiperone, membranes of HEK293T cells monoexpressing D3R; conditions: read-out: % Specific binding [³H]Spiperone, D3R; for remaining activity at 0.001 µM: log concentration -9.00; for remaining activity at 0.0001 µM: log concentration -10.00; for remaining activity at 1 pM: log concentration -12.00
Experimental: (§1) Affinities of the bivalent ligands were determined by radio-ligand displacement in analogy to previously described protocols[76]. […] Competition binding experiments were carried out using a protein concentration of 4–18 µg protein per well for the coexpression systems and 1–12 µg per well for the monoexpression system in a total volume of 200 µL. […] All binding experiments were carried out at 37 °C in binding buffer consisting of 50 mM Tris pH 7.4, 5 nM MgCl2, 1 mM EDTA, 100 µg ∙ mL^−1 bacitracin and 100 µg ∙ mL^−1 soybean trypsin inhibitor. Data were normalised to non-specific and total binding and analysed employing one- or two-site competition binding algorithms implemented in GraphPad Prism for windows, version 6.0 (GraphPad Software, San Diego California, USA, www.graphpad.com).

D3R [2] = target: T1, D3R; assay: IPOne accumulation, D3R-mediated G protein activation, HEK293T cells with D3R and Gqprom; type: cell-based; parameters: host or cells: HEK293T, transient; conditions: compared to the reference agonist quinpirole
Experimental: Supplementary Figure 7 . Activation of D3R in transiently transfected HEK293T cells. D3R-mediated activation of G proteins was measured by stimulation of HEK293T cells transiently transfected with D3R and a promiscuous Gq protein (Gqprom). Subsequent f ormation of IP3 as second messenger of the Gq signaling pathway was determined employing the IPOne assay (CisBio). […]
TransIT293 in a DNA to reagent ratio of 1 : 3. After 24h, cells were detached using Versene […]
Germany) and additionally cultivated f or 24 h at 37°C, 5% CO 2. After replacement of the medium with 10 µL stimulation buffer (CisBio, Codolet, France), 5 µL of the test compounds dissolved in stimulation buffer were added. After 90 min at 37°C, 5 µL of IP1 reagent mix and 5 µ L of AB r eag ent mix in lysis buff er (CisBio) were added, f ollowed by a 60 min incubation at room temperature under light exclusion. The FRET ratio was determined using a CLARIOstar microplate reader with a f ilter […]
A sigmoid curve was fitted using the algorithms for three-parameter non-linear regression provided by GraphPad Pr ism 6.0 and the data were normalized to […]

D3R-Rluc = target: T2, D3R-Rluc (Homo sapiens, UniProt P35462); assay: Bystander BRET internalisation (rGFP-CAAX / rGFP-FYVE), monoexpressed D3R-Rluc; type: cell-based; conditions: 1 µM quinpirole or 10 nM bivalent ligand
T2 construct: 24-aa linker […]; expressed in transfected cells; host or cells: HEK293SL or Δβ-arrestin-HEK, transient
Experimental: HEK293SL cells[71] or Δβ-arrestin-HEK[49] were detached with Trypsin/EDTA (Wisent Inc., St-Bruno, QC, Canada) and 350,000 cells were transiently transfected in suspension using polyethyleneimine. 5 ng of NTSR1-Rluc or 400 ng of D3R-Rluc8 were either mono-or cotransfected with 600 ng of untagged D3R or 5 ng NTSR1, respectively, along with 300 ng rGFP-CAAX or 300 ng rGFP-FYVE and ssDNA to a total of 1 µg DNA. Cells were seeded in white poly-L-ornithine (Sigma Aldrich) coated 96-well plates (Greiner Bio one) at a density of 35,000 cells per well. 48 hours after transfection, cells were washed once with PBS and serum starved for 30–45 min in Tyrode’s Buffer at 37 °C, 5% CO2. Coelenterazine-h was added in a final concentration of 3 µM and cells were further incubated at 37 °C, 5% CO2. After 3 min, ligands were added and cells were stimulated for 30 min, 37 °C, 5% CO2 before determining the BRETratio using a Mithras LB940 multimode microplate reader with 480-20 nm (donor) and 530-20 nm (acceptor) filters. […] Ligand-induced effects were monitored by calculation of ΔBRET, which was determined as the difference in BRETratio between the ligand-treated conditions and vehicle-treated controls. Data were analysed by three-parameter sigmoid or bell-shaped nonlinear regression using the algorithms provided by GraphPad Prism 6.0.

D3R [3] = target: T1, D3R; assay: Surface ELISA, monoexpressed Flag-D3R; type: cell-based; parameters: host or cells: HEK293T, transient; conditions: 1 µM quinpirole, 1 µM NT(8-13) or 10 nM 1d, 30 min
Experimental: β-arrestin 2 recruitment (bystander BRET)6
HEK293SL cells were diluted to a density of 350 ,000 cells ∙ mL-1 and transiently transfected using
to a total DNA amount of 1 µg . 35,000 cells were plated in a 96-well plate coated with poly L- ornithine
and cultivated f or 48 h at 37°C, 5% CO2. On the day of the experiment, the cell medium was aspirated
and each well was washed once with PBS and serum starved f or 30-45 min. A Deep Blue C dilution
ligand dilution in Tyrode’s buffer was added. After additional stimulation for 5 min at 37°C, 5% CO2,
BRET2 was determined using a Mithras LB940 multimode microplate reader with 400- 70 nm (donor)
Obtained BRETratios were normalized to vehicle
non- linear regression employing the models implemented in GraphPad Prism 6.

D3R [4] = target: T1, D3R; assay: biochemical
Experimental: as §1

T1 sequence (P35462 whole entry): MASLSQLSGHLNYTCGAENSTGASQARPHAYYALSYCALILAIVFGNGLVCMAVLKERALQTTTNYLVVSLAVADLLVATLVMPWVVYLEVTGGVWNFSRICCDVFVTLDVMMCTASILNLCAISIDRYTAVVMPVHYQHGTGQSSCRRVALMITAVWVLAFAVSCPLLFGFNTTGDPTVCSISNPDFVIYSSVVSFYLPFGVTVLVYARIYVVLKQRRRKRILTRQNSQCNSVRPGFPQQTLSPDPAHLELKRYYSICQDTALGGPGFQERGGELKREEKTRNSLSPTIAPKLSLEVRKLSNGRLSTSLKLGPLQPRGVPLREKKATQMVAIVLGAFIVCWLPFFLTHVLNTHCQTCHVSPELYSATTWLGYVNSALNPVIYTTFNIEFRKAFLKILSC
T2 sequence (P35462 whole entry): as above

Compound | remaining activity at 0.001 µM (D3R [1]) | remaining activity at 0.0001 µM (D3R [1]) | remaining activity at 1 pM (D3R [1]) | D3R-mediated activation of G proteins (D3R [2]) | remaining activity at 0.302 µM (D3R [1]; log concentration -6.52) | remaining activity at 0.0302 µM (D3R [1]; log concentration -7.52) | remaining activity at 0.00302 µM (D3R [1]; log concentration -8.52) | remaining activity at 0.000302 µM (D3R [1]; log concentration -9.52) | remaining activity at 30.2 pM (D3R [1]; log concentration -10.52) | internalisation of monoexpressed D3R-Rluc (D3R-Rluc) | surface expression of monoexpressed D3R (D3R [3]) | remaining activity at 0.01 µM (D3R [1]; log concentration -8.00) | remaining activity at 10 pM (D3R [1]; log concentration -11.00) | Ki (D3R [4])
CCCN(CCCCc1cn(-c2ccc(-c3ccc(C(=O)NCCOCCOCCOCCOCCOCCOCCC(=O)N[C@@H](CCCNC(=N)N)C(=O)N[C@@H](CCCNC(=N)N)C(=O)N4CCC[C@H]4C(=O)N[C@@H](Cc4ccc(O)cc4)C(=O)N[C@H](C(=O)N[C@@H](CC(C)C)C(=O)O)[C@@H](C)CC)cc3)cc2)nn1)C1Cc2ccccc2C1 [1a] | 48.9% | 74.5% | 88.8% | full D3R agonists |  |  |  |  |  |  |  |  |  | 
CCCN(CCCCc1cn(-c2ccc(-c3ccc(C(=O)NCCOCCOCCOCCOCCOCCOCCC(=O)NCCOCCOCCOCCOCCOCCOCCC(=O)NCCOCCOCCOCCOCCOCCOCCC(=O)NCCOCCOCCOCCOCCOCCOCCC(=O)N[C@@H](CCCNC(=N)N)C(=O)N[C@@H](CCCNC(=N)N)C(=O)N4CCC[C@H]4C(=O)N[C@@H](Cc4ccc(O)cc4)C(=O)N[C@H](C(=O)N[C@@H](CC(C)C)C(=O)O)[C@@H](C)CC)cc3)cc2)nn1)C1Cc2ccccc2C1 [1d] |  | 92.1% | 103% | full D3R agonists | -0.137% | 12.6% | 46.4% | 92.1% | 96.8% | could not detect internalisation | unchanged; also recorded: did not lead to apparent changes in surface expression |  |  | 
CC[C@H](C)[C@H](NC(=O)[C@H](Cc1ccc(O)cc1)NC(=O)[C@@H]1CCCN1C(=O)[C@H](CCCNC(=N)N)NC(=O)[C@H](CCCNC(=N)N)NC(=O)CCOCCOCCOCCOCCOCCOCCNC(=O)c1ccc(-c2ccc(-n3cc(CCCCN4CCN(c5ccccc5OC)CC4)nn3)cc2)cc1)C(=O)N[C@@H](CC(C)C)C(=O)O [2a] | 75% | 90% | 102% | weak partial agonist or antagonist-like behavior |  |  |  |  |  |  |  | 44.3% | 92% | 4.4 nM
CC[C@H](C)[C@H](NC(=O)[C@H](Cc1ccc(O)cc1)NC(=O)[C@@H]1CCCN1C(=O)[C@H](CCCNC(=N)N)NC(=O)[C@H](CCCNC(=N)N)NC(=O)CCOCCOCCOCCOCCOCCOCCNC(=O)CCOCCOCCOCCOCCOCCOCCNC(=O)CCOCCOCCOCCOCCOCCOCCNC(=O)CCOCCOCCOCCOCCOCCOCCNC(=O)c1ccc(-c2ccc(-n3cc(CCCCN4CCN(c5ccccc5OC)CC4)nn3)cc2)cc1)C(=O)N[C@@H](CC(C)C)C(=O)O [2d] |  |  | 94.4% | weak partial agonist or antagonist-like behavior |  |  |  |  |  | could not detect internalisation |  |  |  | 
